Measurements from patent US12390441B2, “Immunomodulating o-het/aryl azalides” (Zoetis Services LLC, priority 2020, dated 2025).
Like-named read-outs stand apart in the source and are kept apart here. Marks after values point to notes of the source that are not given here.

Columns and labels:
M. haemolytica = experiment: In-vitro MIC model (CLSI broth micro-dilution); type: cell-based, Mannheimia haemolytica; settings: for MIC: Mannheimia haemolytica, read-out: Comparative MIC
P. multocida [1] = experiment: In-vitro MIC model (CLSI broth micro-dilution); type: cell-based, Pasteurella multocida; settings: for MIC: Pasteurella multocida, read-out: Comparative MIC
S. aureus (29213 ATCC) = experiment: In-vitro MIC model (CLSI broth micro-dilution); type: cell-based; settings: for MIC: Staphylococcus aureus, read-out: Comparative MIC
P. multocida 46572 = experiment: In vivo mouse lung infection challenge model (murine); parameters: species or system CD-1 female mice; settings: 46572, sc, 20 mg/kg, 240 h
Protocol: The challenge organism was P. multocida 46572. Target challenge concentration was 5×10^2 CFU/mouse. Isolated colonies from overnight growth (37° C. with 5% CO2) on trypticase soy agar (TSA II) blood plates were transferred to room temperature Brain Heart Infusion Broth (BHIB). The broth culture was incubated 3.5-4 hours to approximately mid-log phase of growth, as measured by forward light scatter at 600 nm (OD600, 0.200). The culture was centrifuged to collect the bacterial pellet. The pellet was re-suspended in BHIB and adjusted to provide an approximate concentration of 2.7 log^10 colony forming units (CFU) in 0.04 mL at the highest concentration. The challenge inoculum concentration was confirmed by serial dilutions of the inoculum for CFU enumeration. On Day −5, CD-1 female mice were received. Mice were given standard rodent diet and water ad libitum. On Day 0, bacterial inoculum (0.04 mL) was administered to each mouse (n=36) intranasally. Compounds of the invention were dosed at 20 mg/kg (0.1 mL) in a buffered (˜pH 5.4) propylene glycol, monothioglycerol and water solution by subcutaneous injection. Animals were observed from Days 1-10. The study was terminated on Day 10. In addition, some treatment groups were sampled at 6, 24, and 48 hours post bacterial challenge for RNA sequence analysis of lung tissue.
The murine efficacy model (P. multocida challenge) was optimized, and the treatment group size was powered to be able to observe statistically significant improvement of survival to expected ranges for immunomodulatory compounds. The experimental design was a randomized complete block design. Mice were individually identified and treatment groups comingled within a cage, with every treatment group equally represented across cages. Mortality was the primary variable. Mortality data was analyzed using a generalized mixed model with fixed effect of treatment and random effect of block. Survival time was also analyzed using the SAS PHREG (survival analysis) procedure to examine whether there were significant differences between treatment groups and the control group. Numerous compounds of the invention and M9 (positive control) were tested in this model at a dose of 20 mg/kg (Table 3). Typical percent survival for no treatment control is in the range of 0-20% based on study to study variation in challenge inoculum and rate of infection. […] Mouse survival for M9 was about 90-100%, further supporting its residual antibacterial properties against the bacterial strain. Harmonized survival accounts for % survival relative to vehicle (“−” control) and M9 (“+” control)) survival data (Table 3).

[2] = tested on: BRD pathogens, M. haemolytica and P. multocida; experiment: In-vitro MIC model, BRD pathogen screening panel; type: cell-based, Mannheimia haemolytica; Pasteurella multocida; settings: at least one BRD strain
TNF-α = experiment: Whole blood assay, LPS stimulation, MSD cytokine detection; type: cell-based; settings: fresh whole bovine blood
IL-1β = experiment: as above; type: cell-based, bovine; settings: fresh whole bovine blood, LPS stimulation; drug concentration giving overstimulation (OS) of IL-1β
IL-6 [3] = experiment: as above; type: cell-based; settings: Bos taurus, fresh whole bovine blood
[4] = tested on: M. haemolytica (OSU-012103-BHI); settings: inhaled or nasal
P. multocida [5] = experiment: Murine P. multocida intranasal challenge study, survival; type: in vivo, mice; settings: 5×10^3 CFU/mouse; subcutaneous 18 hours after challenge; tulathromycin 16 mg/kg, M9 32 mg/kg, ceftiofur 9 mg/kg
[6] = tested on: Lung bacteria isolated at necropsy; experiment: MIC of recovered isolates, natural bovine respiratory disease study
Protocol: The primary clinical endpoint for efficacy was treatment failure/success over a 14-day observation period. Clinically normal beef calves (150-200 kg) at moderate risk for BRD were dosed on arrival to the feedlot. Animals (N=114/group) received saline (T01), 5 mg/kg M9 (T02) or 10 mg/kg M9 (T03); or Zactran (T04). […] Bacterial isolates were collected at necropsy and MICs were evaluated (Table 4).

IL-6 [7] = experiment: Plasma IL-6 biomarker in bovine M. haemolytica challenge
[8] = M. haemolytica 46571, bovine efficacy challenge strain
[9] = P. multocida 46572, murine efficacy challenge strain
[10] = H. somni (25) lung isolates at necropsy
[11] = M. haemolytica (116) lung isolates at necropsy
[12] = P. multocida (33) lung isolates at necropsy

SMILES	% Survival (P. multocida 46572) [%]	Comparative MIC (M. haemolytica; M. haemolytica 12726) [µg/mL]	Comparative MIC (M. haemolytica; M. haemolytica 33396) [µg/mL]	Comparative MIC (M. haemolytica; [8]) [µg/mL]	Comparative MIC (P. multocida [1]; P. multocida 43137) [µg/mL]	Comparative MIC (P. multocida [1]; [9]) [µg/mL]	Comparative MIC (S. aureus (29213 ATCC)) [µg/mL]	IC50 (TNF-α; Bos taurus) [µM]	IL-1ß OS of LPS (IL-1β) [µM]	also measured
CC[C@H]1OC(=O)[C@H](C)[C@@H](O)[C@H](C)[C@@H](O[C@@H]2O[C@H](C)C[C@H](NC)[C@H]2Oc2ccc(OC)cc2)[C@](C)(O)C[C@@H](C)CN[C@H](C)[C@@H](O)[C@]1(C)O [Example B-6, (2R,3S,4R,5R,8R,10R,11R,12S,13S,14R)-2-ethyl-3,4,10,13-tetrahydroxy-11-(((2S,3R,4S,6R)-3-(4-methoxyphenoxy)-6-methyl-4-(methylamino)tetrahydro-2H-pyran-2-yl)oxy)-3,5,8,10,12,14-hexamethyl-1-oxa-6-azacyclopentadecan-15-one]	1									MIC (M. haemolytica; M. haemolytica 12726): > 64 µg/mL; MIC (M. haemolytica; M. haemolytica 33396): > 64 µg/mL; MIC (M. haemolytica; [8]): > 64 µg/mL; MIC (P. multocida [1]; P. multocida 43137): > 64 µg/mL; MIC (P. multocida [1]; [9]): > 64 µg/mL; MIC (S. aureus (29213 ATCC)): > 64 µg/mL
CC[C@H]1OC(=O)[C@H](C)[C@@H](O)[C@H](C)[C@@H](O[C@@H]2O[C@H](C)C[C@H](N(C)C(=O)N(C)C3CC3)[C@H]2Oc2ccccc2)[C@](C)(O)C[C@@H](C)CN(C)[C@H](C)[C@@H](O)[C@]1(C)O [Example C-27]		>64	>64	>64	>64	>64	>64			
CCCNC[C@]1(O)[C@H](C)O[C@@H](O[C@H]2[C@H](C)[C@@H](O[C@@H]3O[C@H](C)C[C@H](NC)[C@H]3Oc3ccc(F)cc3)[C@](C)(O)C[C@@H](C)CN[C@H](C)[C@@H](O)[C@](C)(O)[C@@H](CC)OC(=O)[C@@H]2C)C[C@@]1(C)OC [Example E-1, (2R,3S,4R,5R,8R,10R,11R,12S,13S,14R)-2-ethyl-11-(((2S,3R,4S,6R)-3-(4-fluorophenoxy)-6-methyl-4-(methylamino)tetrahydro-2H-pyran-2-yl)oxy)-3,4,10-trihydroxy-13-(((2R,4R,5S,6S)-5-hydroxy-4-methoxy-4,6-dimethyl-5-((propylamino)methyl)tetrahydro-2H-pyran-2-yl)oxy)-3,5,8,10,12,14-hexamethyl-1-oxa-6-azacyclopentadecan-15-one]	57							6	32	MIC flag at the example number (Table E) [2]: E-1* (MIC ≤ 64 μg/mL for at least one BRD strain)
CCCNC[C@]1(O)[C@H](C)O[C@@H](O[C@H]2[C@H](C)[C@@H](O[C@@H]3O[C@H](C)C[C@H](NC)[C@H]3Oc3ccc(OC)cc3)[C@](C)(O)C[C@@H](C)CN[C@H](C)[C@@H](O)[C@](C)(O)[C@@H](CC)OC(=O)[C@@H]2C)C[C@@]1(C)OC [Example E-2, (2R,3S,4R,5R,8R,10R,11R,12S,13S,14R)-2-ethyl-3,4,10-trihydroxy-13-(((2R,4R,5S,6S)-5-hydroxy-4-methoxy-4,6-dimethyl-5-((propylamino)methyl)tetrahydro-2H-pyran-2-yl)oxy)-11-(((2S,3R,4S,6R)-3-(4-methoxyphenoxy)-6-methyl-4-(methylamino)tetrahydro-2H-pyran-2-yl)oxy)-3,5,8,10,12,14-hexamethyl-1-oxa-6-azacyclopentadecan-15-one]	36							6	32	MIC flag at the example number (Table E) [2]: E-2* (MIC ≤ 64 μg/mL for at least one BRD strain)
CCCNC[C@]1(O)[C@H](C)O[C@@H](O[C@H]2[C@H](C)[C@@H](O[C@@H]3O[C@H](C)C[C@H](NC)[C@H]3Oc3cccc(OCC)c3)[C@](C)(O)C[C@@H](C)CN[C@H](C)[C@@H](O)[C@](C)(O)[C@@H](CC)OC(=O)[C@@H]2C)C[C@@]1(C)OC [Example E-13]		>64	>64	>64	>64	>64	>64		40	IC50 (TNF-α): 30 µM
CCCNC[C@]1(O)[C@H](C)O[C@@H](O[C@H]2[C@H](C)[C@@H](O[C@@H]3O[C@H](C)C[C@H](NC)[C@H]3Oc3ccccc3)[C@](C)(O)C[C@@H](C)CN[C@H](C)[C@@H](O)[C@](C)(O)[C@@H](CC)OC(=O)[C@@H]2C)C[C@@]1(C)OC [Example E-112, (2R,3S,4R,5R,8R,10R,11R,12S,13S,14R)-2-ethyl-3,4,10-trihydroxy-13-(((2R,4R,5S,6S)-5-hydroxy-4-methoxy-4,6-dimethyl-5-((propylamino)methyl)tetrahydro-2H-pyran-2-yl)oxy)-3,5,8,10,12,14-hexamethyl-11-(((2S,3R,4S,6R)-6-methyl-4-(methylamino)-3-phenoxytetrahydro-2H-pyran-2-yl)oxy)-1-oxa-6-azacyclopentadecan-15-one]	53							10	80	MIC (M. haemolytica; M. haemolytica 12726): > 64 µg/mL; MIC (M. haemolytica; M. haemolytica 33396): > 64 µg/mL; MIC (M. haemolytica; [8]): > 64 µg/mL; MIC (P. multocida [1]; P. multocida 43137): > 64 µg/mL; MIC (P. multocida [1]; [9]): > 64 µg/mL; MIC (S. aureus (29213 ATCC)): > 64 µg/mL; IC50 (IL-6 [3]): 40 µM; lung lesion scores ([4]; 0.01 mg/kg): 39; lung lesion scores ([4]; 0.05 mg/kg): 41; lung lesion scores ([4]; 0.1 mg/kg): 27
CCCNC[C@]1(O)[C@H](C)O[C@@H](O[C@H]2[C@H](C)[C@@H](O[C@@H]3O[C@H](C)C[C@H](N(C)C(=O)N4CCN(CC)CC4)[C@H]3Oc3ccc(OC)c(OCC)c3)[C@](C)(O)C[C@@H](C)CN[C@H](C)[C@@H](O)[C@](C)(O)[C@@H](CC)OC(=O)[C@@H]2C)C[C@@]1(C)OC [Example G-3]		>64	>64	>64	>64	>64	>64			
CO/N=C(\C(=O)N[C@@H]1C(=O)N2C(C(=O)O)=C(CSC(=O)c3ccco3)CS[C@H]12)c1csc(N)n1 [ceftiofur]										Survival at Day 7 (P. multocida [5]): ~90%
CCCN1C[C@H](C)[C@@H](O)[C@](C)(O)[C@@H](CC)OC(=O)[C@H](C)[C@@H](O[C@H]2C[C@@](C)(OC)[C@@H](O)[C@H](C)O2)[C@H](C)[C@@H](O[C@@H]2O[C@H](C)C[C@H](N(C)C)[C@H]2O)[C@](C)(O)C[C@H]1C [gamithromycin (Zactran)]										MIC50 [6, 10]: 0.25 µg/mL; MIC90 [6, 10]: 2 µg/mL; MIC50 [6, 11]: 1 µg/mL; MIC90 [6, 11]: >64 µg/mL; MIC50 [6, 12]: 1 µg/mL; MIC90 [6, 12]: >64 µg/mL
CCCNC[C@]1(O)[C@H](C)O[C@@H](O[C@H]2[C@H](C)[C@@H](O[C@@H]3O[C@H](C)C[C@H](N(C)C)[C@H]3O)[C@](C)(O)C[C@@H](C)CN[C@H](C)[C@@H](O)[C@](C)(O)[C@@H](CC)OC(=O)[C@@H]2C)C[C@@]1(C)OC [tulathromycin, (2R,3S,4R,5R,8R,10R,11R,12S,13S,14R)-11-(((2S,3R,4S,6R)-4-(dimethylamino)-3-hydroxy-6-methyltetrahydro-2H-pyran-2-yl)oxy)-2-ethyl-3,4,10-trihydroxy-13-(((2R,4R,5S,6S)-5-hydroxy-4-methoxy-4,6-dimethyl-5-((propylamino)methyl)tetrahydro-2H-pyran-2-yl)oxy)-3,5,8,10,12,14-hexamethyl-1-oxa-6-azacyclopentadecan-15-one]										Survival at Day 7 (P. multocida [5]): about 80%; IL-6 levels (IL-6 [7]): significantly reduced
